Experimental findings from ChEMBL document CHEMBL2311440, “Inhibitors of HIV-1 attachment. Part 8: the effect of C7-heteroaryl substitution on the potency, and in vitro and in vivo profiles of indole-based inhibitors” (Bioorg Med Chem Lett, 2013) are described below.

Bounds are passed on as bounds.

System in the first series: not listed separately
Put plainly: Cytotoxicity against human HeLa CD4+ CCR5+ cells after 6 days by XTT assay. Format: cell-based.
Settings: not given
On the technique in general: Tetrazolium dyes change colour on reduction, which living cells bring about.
Consider `O=C(C(=O)N1CCN(C(=O)c2ccccc2)CC1)c1c[nH]c2cccc(F)c12`, for which the CC50 at 144 h is greater than 300000 nM.
Same read-out and setting: the result for `C[C@@H]1CN(C(=O)c2ccccc2)CCN1C(=O)C(=O)c1c[nH]c2c(-c3nn[nH]n3)ccc(F)c12` reads greater than 300000 nM; that for `C[C@@H]1CN(C(=O)c2ccccc2)CCN1C(=O)C(=O)c1c[nH]c2c(-c3ncon3)ccc(F)c12`, 125000 nM; that for `COc1ccc(-c2ncon2)c2[nH]cc(C(=O)C(=O)N3CCN(C(=O)c4ccccc4)CC3)c12`, 22000 nM.
On the same count and under the same terms, the result for `Cc1nnc(-c2ccc(F)c3c(C(=O)C(=O)N4CCN(C(=O)c5ccccc5)CC4)c[nH]c23)[nH]1` reads 159000 nM; that for `NC(=O)c1nc(-c2ccc(F)c3c(C(=O)C(=O)N4CCN(C(=O)c5ccccc5)CC4)c[nH]c23)no1`, 154000 nM.
Same read-out and setting: the result for `CC(=O)Nc1nc(-c2ccc(F)c3c(C(=O)C(=O)N4CCN(C(=O)c5ccccc5)CC4)c[nH]c23)no1` reads 229000 nM; that for `CN(C)c1nc(-c2ccc(F)c3c(C(=O)C(=O)N4CCN(C(=O)c5ccccc5)CC4)c[nH]c23)no1`, 23000 nM.
Compound `CNc1nc(-c2ccc(F)c3c(C(=O)C(=O)N4CCN(C(=O)c5ccccc5)CC4)c[nH]c23)no1` displayed a cytotoxic concentration (CC50) at 144 h of 26000 nM. The CC50 at 144 h values of the last two compounds are within 1.5-fold of each other.
On the same count and under the same terms, the result for `Nc1nc(-c2ccc(F)c3c(C(=O)C(=O)N4CCN(C(=O)c5ccccc5)CC4)c[nH]c23)no1` reads 43000 nM.
The compound `COc1nc(-c2ccc(F)c3c(C(=O)C(=O)N4CCN(C(=O)c5ccccc5)CC4)c[nH]c23)no1` showed a CC50 at 144 h of 44000 nM.
The same measure, in the same setting: the same measure for `Cc1noc(-c2ccc(F)c3c(C(=O)C(=O)N4CCN(C(=O)c5ccccc5)CC4)c[nH]c23)n1`: greater than 300000 nM.
The same measure, in the same setting: the result for `Cc1nc(-c2ccc(F)c3c(C(=O)C(=O)N4CCN(C(=O)c5ccccc5)CC4)c[nH]c23)no1` reads 226000 nM.
`O=C(C(=O)N1CCN(C(=O)c2ccccc2)CC1)c1c[nH]c2c(-c3nc4ccccc4[nH]3)ccc(F)c12`: the CC50 at 144 h was 11000 nM.
In turn, `O=C(C(=O)N1CCN(C(=O)c2ccccc2)CC1)c1c[nH]c2c(-c3nc4ccccc4o3)ccc(F)c12` showed a CC50 at 144 h of 27000 nM.

System in the next series: not listed separately
Put plainly: Antiviral activity against T-tropic HIV1 BRU virus by cell culture based assay. Format: functional, Human immunodeficiency virus type 1 (BRU ISOLATE). Conditions: Human immunodeficiency virus 1.
As to `O=C(C(=O)N1CCN(C(=O)c2ccccc2)CC1)c1c[nH]c2cccc(F)c12`, the response was half-maximal at 90 nM (EC50). This lies in the double-digit nanomolar range.

In a further series the test system is Human immunodeficiency virus 1. The series can be described thus: Antiviral activity against HIV1 JRFL pseudotyped virus infected in HeLa CD4+ CCR5+ cells by single-cycle viral infectivity assay. Format: functional, organism-based. Conditions: Human immunodeficiency virus 1, JRFL.
Turning to `O=C(C(=O)N1CCN(C(=O)c2ccccc2)CC1)c1c[nH]c2cccc(F)c12`, a half-maximal effect (EC50) was put at 1.24 nM.
As to `C[C@@H]1CN(C(=O)c2ccccc2)CCN1C(=O)C(=O)c1c[nH]c2c(-c3nn[nH]n3)ccc(F)c12`, it took 0.07 nM to reach a half-maximal effect (EC50).
Same read-out and setting: the same measure for `C[C@@H]1CN(C(=O)c2ccccc2)CCN1C(=O)C(=O)c1c[nH]c2c(-c3ncon3)ccc(F)c12`: 0.04 nM.
On the same count and under the same terms, the result for `COc1ccc(-c2ncon2)c2[nH]cc(C(=O)C(=O)N3CCN(C(=O)c4ccccc4)CC3)c12` reads 0.16 nM; that for `Cc1nnc(-c2ccc(F)c3c(C(=O)C(=O)N4CCN(C(=O)c5ccccc5)CC4)c[nH]c23)[nH]1`, 0.16 nM.
Turning to `NC(=O)c1nc(-c2ccc(F)c3c(C(=O)C(=O)N4CCN(C(=O)c5ccccc5)CC4)c[nH]c23)no1`, the EC50 is 0.1 nM.
On the same count and under the same terms, the result for `CC(=O)Nc1nc(-c2ccc(F)c3c(C(=O)C(=O)N4CCN(C(=O)c5ccccc5)CC4)c[nH]c23)no1` reads 0.1 nM; that for `CN(C)c1nc(-c2ccc(F)c3c(C(=O)C(=O)N4CCN(C(=O)c5ccccc5)CC4)c[nH]c23)no1`, 0.3 nM.
On the same count and under the same terms, the result for `CNc1nc(-c2ccc(F)c3c(C(=O)C(=O)N4CCN(C(=O)c5ccccc5)CC4)c[nH]c23)no1` reads 0.04 nM; that for `Nc1nc(-c2ccc(F)c3c(C(=O)C(=O)N4CCN(C(=O)c5ccccc5)CC4)c[nH]c23)no1`, 0.0082 nM.
On the same count and under the same terms, the result for `COc1nc(-c2ccc(F)c3c(C(=O)C(=O)N4CCN(C(=O)c5ccccc5)CC4)c[nH]c23)no1` reads 3.55 nM; that for `Cc1noc(-c2ccc(F)c3c(C(=O)C(=O)N4CCN(C(=O)c5ccccc5)CC4)c[nH]c23)n1`, 0.094 nM; that for `Cc1nc(-c2ccc(F)c3c(C(=O)C(=O)N4CCN(C(=O)c5ccccc5)CC4)c[nH]c23)no1`, 0.06 nM.
`O=C(C(=O)N1CCN(C(=O)c2ccccc2)CC1)c1c[nH]c2c(-c3nc4ccccc4[nH]3)ccc(F)c12` returned an EC50 of 0.53 nM. This EC50 lies about 8.8-fold higher than the previous one.
Still for that read-out and setting: the same measure for `O=C(C(=O)N1CCN(C(=O)c2ccccc2)CC1)c1c[nH]c2c(-c3nc4ccccc4o3)ccc(F)c12`: 0.88 nM.

For the next series, the system named is Human immunodeficiency virus 1. The series can be described thus: Antiviral activity against T-tropic HIV1 NL4-3 virus by cell culture based assay. The following applies: Human immunodeficiency virus 1, NL4-3. Format: functional, organism-based.
For `O=C(C(=O)N1CCN(C(=O)c2ccccc2)CC1)c1c[nH]c2cccc(F)c12`, the half-maximal effective concentration (EC50) turned out to be 1500 nM.

System in a further series: not listed separately
Put plainly: Half life in human liver microsomes. The class given is ADME, Microsome.
Settings: not given
Compound `O=C(C(=O)N1CCN(C(=O)c2ccccc2)CC1)c1c[nH]c2cccc(F)c12` displayed a half-life greater than 100 min.
The same measure, in the same setting: the same measure for `C[C@@H]1CN(C(=O)c2ccccc2)CCN1C(=O)C(=O)c1c[nH]c2c(-c3nn[nH]n3)ccc(F)c12`: greater than 100 min.
On the same count and under the same terms, the same measure for `COc1ccc(-c2ncon2)c2[nH]cc(C(=O)C(=O)N3CCN(C(=O)c4ccccc4)CC3)c12`: 16 min; for `Cc1nnc(-c2ccc(F)c3c(C(=O)C(=O)N4CCN(C(=O)c5ccccc5)CC4)c[nH]c23)[nH]1`: 25 min; for `Nc1nc(-c2ccc(F)c3c(C(=O)C(=O)N4CCN(C(=O)c5ccccc5)CC4)c[nH]c23)no1`: 17 min.

System in a further series: not listed separately
The series can be described thus: Permeability across human Caco2 cells at pH 6.5. The class given is ADME, cell-based. The following applies: Caco-2, pH 6.5, read-out: permeability. A general note: Caco-2 monolayers are a common model of the intestinal barrier.
Consider `C[C@@H]1CN(C(=O)c2ccccc2)CCN1C(=O)C(=O)c1c[nH]c2c(-c3nn[nH]n3)ccc(F)c12`, for which the Papp is less than 1.5 ×10⁻⁶ cm/s.
Still for that read-out and setting: the same measure for `COc1ccc(-c2ncon2)c2[nH]cc(C(=O)C(=O)N3CCN(C(=O)c4ccccc4)CC3)c12`: 14.8 ×10⁻⁶ cm/s; for `Cc1nnc(-c2ccc(F)c3c(C(=O)C(=O)N4CCN(C(=O)c5ccccc5)CC4)c[nH]c23)[nH]1`: 8.9 ×10⁻⁶ cm/s; for `Nc1nc(-c2ccc(F)c3c(C(=O)C(=O)N4CCN(C(=O)c5ccccc5)CC4)c[nH]c23)no1`: 6.9 ×10⁻⁶ cm/s.

The test system of another series is Human immunodeficiency virus 1. Put plainly: Antiviral activity against M-tropic HIV1 Bal virus by cell culture based assay. The class given is functional, organism-based. Conditions: Human immunodeficiency virus 1, Bal.
In turn, `O=C(C(=O)N1CCN(C(=O)c2ccccc2)CC1)c1c[nH]c2cccc(F)c12` came in with a half-maximal effective concentration (EC50) of 700 nM.

A word on the CC50: it is the concentration at which the toxic effect on the cells reaches its halfway point. Usually EC50 stands for the concentration giving half of the maximal effect. Higher therefore signals lower potency in that assay. The term half-life denotes the time needed for the level to fall by half in the phase considered. A higher half-life goes with slow decline.
